Results from ChEMBL document CHEMBL1141127, “Investigation of the binding determinants of phosphopeptides targeted to the SRC homology 2 domain of the signal transducer and activator of transcription 3. Development of a high-affinity peptide inhibitor” (J Med Chem, 2005).
Square brackets hold non-standard residues; d marks the D form. Peptide text beside a SMILES is read from it. pY = N[C@@H](Cc1ccc(OP(=O)(O)O)cc1)C(=O)O; Dip = N[C@H](C(=O)O)C(c1ccccc1)c1ccccc1; NMeL = CN[C@@H](CC(C)C)C(=O)O

Experiments:
[1] = target: T1, Signal transducer and activator of transcription 3 (Homo sapiens, UniProt P40763); assay: Inhibitory concentration against signal transducer and activator of transcription 3 (stat3) using 5-carboxyfluoresceinyl-Ala-Tyr(PO3H2)-Leu-Pro-Gln-Thr-Val-NH2 by FP assay
T1 sequence (P40763 whole entry): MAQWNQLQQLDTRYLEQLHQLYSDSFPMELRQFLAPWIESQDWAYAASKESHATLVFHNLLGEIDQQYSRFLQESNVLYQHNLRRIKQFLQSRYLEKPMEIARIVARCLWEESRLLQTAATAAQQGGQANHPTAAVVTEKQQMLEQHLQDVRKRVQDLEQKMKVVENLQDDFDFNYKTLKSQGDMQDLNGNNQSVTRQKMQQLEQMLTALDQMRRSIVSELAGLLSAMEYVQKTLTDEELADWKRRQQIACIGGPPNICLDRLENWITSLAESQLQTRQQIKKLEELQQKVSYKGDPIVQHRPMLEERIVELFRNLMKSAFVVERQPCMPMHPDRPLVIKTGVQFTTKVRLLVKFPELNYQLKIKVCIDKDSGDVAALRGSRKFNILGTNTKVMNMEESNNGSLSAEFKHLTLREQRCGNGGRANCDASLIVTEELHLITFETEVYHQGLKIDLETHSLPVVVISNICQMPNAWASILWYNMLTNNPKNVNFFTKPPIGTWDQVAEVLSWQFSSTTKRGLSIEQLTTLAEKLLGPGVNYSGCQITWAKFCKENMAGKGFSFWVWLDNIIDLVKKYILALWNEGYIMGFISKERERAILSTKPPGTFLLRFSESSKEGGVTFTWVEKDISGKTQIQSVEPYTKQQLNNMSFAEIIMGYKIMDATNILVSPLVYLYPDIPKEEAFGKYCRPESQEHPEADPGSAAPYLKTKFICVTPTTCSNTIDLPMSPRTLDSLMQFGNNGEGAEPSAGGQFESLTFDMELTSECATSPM

[2] = target: T1, Signal transducer and activator of transcription 3; assay: Inhibitory concentration against signal transducer and activator of transcription 3 (stat3) by (EMSA) electrophoretic mobility shift assay

Row | Structure (SMILES) | IC50 [1] | IC50 [2]
1 | CC(=O)N[C@@H](Cc1ccc(OP(=O)(O)O)cc1)C(=O)N[C@@H](CC(C)C)C(=O)N1CCC[C@@H]1C(=O)N[C@@H](CCC(N)=O)C(=O)N[C@H](C(N)=O)[C@@H](C)O | > 100 µM | 
2 | CC(=O)N[C@@H](Cc1ccc(OP(=O)(O)O)cc1)C(=O)N(C)[C@@H](CC(C)C)C(=O)N1CCC[C@H]1C(=O)N[C@@H](CCC(N)=O)C(=O)N[C@H](C(N)=O)[C@@H](C)O (Ac-[pY][NMeL]PQT-NH2) | > 100 µM | 
3 | CC(=O)N[C@@H](Cc1ccc(OP(=O)(O)O)cc1)C(=O)N[C@@H](CC(C)C)C(=O)N1CCC[C@H]1C(=O)N[C@@H](CCC(N)=O)C(N)=O (Ac-[pY]LPQ-NH2) |  | 1 µM
4 | CC(=O)N[C@@H](Cc1ccc(OP(=O)(O)O)cc1)C(=O)N[C@@H](CC(C)C)C(=O)N1CCC[C@H]1C(=O)N[C@@H](CCC(N)=O)C(=O)N[C@H](C(N)=O)[C@@H](C)O |  | 0.6 µM
5 | CC(=O)N[C@@H](Cc1ccc(OP(=O)(O)O)cc1)C(=O)N[C@H](C(=O)N1CCC[C@H]1C(=O)N[C@@H](CCC(N)=O)C(=O)N[C@H](C(N)=O)[C@@H](C)O)C(c1ccccc1)c1ccccc1 (Ac-[pY][Dip]PQT-NH2) | > 100 µM | 
